Test results taken from article PMC2845915 (Bioconjugate chemistry, 2010).

Assays:
[1] = target: T1, human P2Y14 receptor (Homo sapiens, UniProt Q15391); conditions: read-out: Potency at the P2Y14 receptor in the same assay; C6 cells expressing the human P2Y14 receptor; cited from earlier work
T1 sequence (Q15391 1-338): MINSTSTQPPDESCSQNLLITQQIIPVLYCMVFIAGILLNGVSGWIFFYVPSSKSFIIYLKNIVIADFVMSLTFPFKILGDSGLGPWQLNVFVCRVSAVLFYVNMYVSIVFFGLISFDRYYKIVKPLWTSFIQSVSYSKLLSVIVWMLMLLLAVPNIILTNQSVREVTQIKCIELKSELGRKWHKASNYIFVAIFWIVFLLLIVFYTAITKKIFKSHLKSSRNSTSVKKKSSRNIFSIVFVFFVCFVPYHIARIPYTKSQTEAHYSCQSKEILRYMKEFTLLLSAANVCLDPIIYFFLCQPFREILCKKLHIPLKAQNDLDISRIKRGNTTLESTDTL

[2] = target: T2, human A3AR (Homo sapiens, UniProt P0DMS8); experiment: Radioligand binding at human A3AR; conditions: human ARs
T2 sequence (P0DMS8 1-318): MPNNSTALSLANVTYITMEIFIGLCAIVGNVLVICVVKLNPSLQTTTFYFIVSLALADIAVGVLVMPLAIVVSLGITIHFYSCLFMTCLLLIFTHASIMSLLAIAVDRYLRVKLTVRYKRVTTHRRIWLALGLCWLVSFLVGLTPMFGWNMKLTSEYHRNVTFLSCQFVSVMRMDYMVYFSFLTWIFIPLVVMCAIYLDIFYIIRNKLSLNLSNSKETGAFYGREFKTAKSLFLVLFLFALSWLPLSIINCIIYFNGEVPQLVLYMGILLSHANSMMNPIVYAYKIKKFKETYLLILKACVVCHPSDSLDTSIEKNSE

[3] = target: T3, human A1AR (Homo sapiens, UniProt P30542); conditions: at 10 μM, ref Tosh et al. ([15], [21]) and Melman et al. ([14]); cited from earlier work
T3 sequence (P30542 1-326): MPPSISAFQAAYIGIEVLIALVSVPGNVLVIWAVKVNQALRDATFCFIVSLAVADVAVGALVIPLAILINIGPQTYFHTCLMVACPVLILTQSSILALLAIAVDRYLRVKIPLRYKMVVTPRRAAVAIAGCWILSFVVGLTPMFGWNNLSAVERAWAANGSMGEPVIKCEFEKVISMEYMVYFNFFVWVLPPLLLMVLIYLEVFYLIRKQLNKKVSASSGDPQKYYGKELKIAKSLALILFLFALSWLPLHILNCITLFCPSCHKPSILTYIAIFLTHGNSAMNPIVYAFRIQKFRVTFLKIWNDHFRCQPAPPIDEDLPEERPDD

[4] = target: human A2AAR (Homo sapiens, UniProt P29274); conditions: read-out: Affinity (Ki) A2 (A2A), [3H]CGS21680, HEK293, ref Tosh et al. ([15], [21]) and Melman et al. ([14]); cited from earlier work
Chain of human A2AAR (P29274 whole entry): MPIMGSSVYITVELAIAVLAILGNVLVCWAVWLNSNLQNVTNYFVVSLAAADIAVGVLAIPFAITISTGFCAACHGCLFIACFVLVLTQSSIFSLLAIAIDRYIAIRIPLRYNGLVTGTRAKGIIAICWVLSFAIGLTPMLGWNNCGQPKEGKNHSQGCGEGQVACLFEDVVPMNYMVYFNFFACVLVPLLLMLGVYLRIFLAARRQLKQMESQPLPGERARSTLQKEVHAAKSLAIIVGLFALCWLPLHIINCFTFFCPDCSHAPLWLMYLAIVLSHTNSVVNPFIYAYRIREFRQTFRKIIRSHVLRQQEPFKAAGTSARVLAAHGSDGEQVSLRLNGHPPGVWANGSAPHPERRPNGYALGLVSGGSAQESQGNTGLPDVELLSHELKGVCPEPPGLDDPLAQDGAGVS

[5] = target: T2, human A3AR; conditions: cited from earlier work

Compound	EC50 [1]	Selectivity for the A3AR in comparison to the A1AR [2]	% inhibition of radioligand binding A1 [3]	Ki [4]	Selectivity for the A3AR [5]
O=C(O)[C@H]1O[C@H](OP(=O)(O)OP(=O)(O)OC[C@H]2O[C@@H](n3ccc(=O)[nH]c3=O)[C@H](O)[C@@H]2O)[C@H](O)[C@@H](O)[C@@H]1O [UDPGA, uridine-5′-diphosphoglucuronic acid]	0.2 to 0.3 µM				
CNC(=O)[C@@]12C[C@@H]1[C@@H](n1cnc3c(NCc4cccc(Cl)c4)nc(C#CCCCCc4cn(CCNC(C)=O)nn4)nc31)[C@H](O)[C@@H]2O [Compound 4a]		> 500 fold	(12±4%) at 10 μM	2.44 ± 0.32 µM	at least 100 fold
C#CCCCCC#Cc1nc(NCc2cccc(Cl)c2)c2ncn([C@H]3[C@H](O)[C@H](O)[C@]4(C(=O)NC)C[C@H]34)c2n1 [Compound 3a]			(31±2%) at 10 μM		
CNC(=O)[C@@]12C[C@@H]1[C@@H](n1cnc3c(NCc4cccc(Cl)c4)nc(Cl)nc31)[C@H](O)[C@@H]2O [Compound 2]				2.3 ± 0.1 µM	
